Reference: article PMC9162962 (European Journal of Medicinal Chemistry, 2022)

Biological target: SARS-CoV-2 M^pro (Severe acute respiratory syndrome coronavirus 2, UniProt P0DTD1)
Format: biochemical

NC(=S)N/N=C/c1ccc(-c2ccc(C(=O)O)c(O)c2)o1 [F8–B6, (E)-4-(5-((2-carbamothioylhydrazono)methyl)furan-2-yl)-2-hydroxybenzoic acid]
Effect of dithiothreitol (DTT) on inhibition: reverse the inhibitory effect
